The target in data set [1] is MscL channel protein (G22C, cysteine at 22nd position) (Escherichia coli, UniProt P0A742, G22C). The following applies: for pH at which channel activity starts: buffers at different pHs; for channel activity of modified protein in response to pH: same sample in the same buffer at different pHs. The text has this: All synthesized compounds were attached to the MscL protein from E. coli via cysteine modification. In this example, the 22nd position of the protein was mutated to a cysteine.
A membrane pellet fraction was obtained from a fermentor culture of E. coli pB104 cells containing the plasmid PB104 carrying the MscL(G22C)-6His construct. MscL was isolated to near homogeneity via a single nickel-nitriloacetic acid (Ni-NTA) metal-affinity chromatography step.
The protein modification reaction was stopped and the excess label was removed by applying the sample into a gel filtration column. The protein concentration of elution fractions was determined by Bradford Assay.
The modified protein was reconstituted in synthetic lipid membranes in order to follow the channel activity. For this purpose, DOPC:Cholesterol:DSPE-PEG (70:20:10 Molar ratio) liposomes were titrated with Triton-X100 until saturation. Titrated liposomes were mixed with modified protein in 1:120 (wt:wt) protein to lipid ratio. Biobeads were used to remove the detergent. A self-quenching dye, calcein, was added and included into the interior of the proteoliposomes during reconstitution.
Proteoliposomes containing modified MscL protein were analyzed by a fluorescent dye efflux assay. The activity of the channel was measured as an increase in the fluorescence of a reporter molecule, the dye calcein. Calcein is included in the liposome interior at a self-quenching concentration, but when the calcein escapes into the exterior medium, the dilution is such that quenching is completely abolished.
During reconstitution of the protein into the mixture of synthetic lipids in the presence of a detergent, a self-quenching dye, calcein, is also added into the mixture to a final concentration of 50 mM. After the reconstitution is completed by the removal of the detergent, the calcein-containing liposomal fraction was separated from the unencapsulated free calcein by passing the sample through a Sephadex G50 size exclusion column (FIG. 7A).
A portion of the liposomal fraction is placed in 2 ml iso-osmotic buffer and the activity of the channels is followed by measuring the increase in fluorescence as calcein becomes dequenched upon being released through the channel protein in response to a stimulus (FIG. 7B). Fluorescence was monitored with a SLM 500 spectrofluorometer Excitation and emission wavelengths were 490 (slit 2 nm) and 520 nm (slit 4 nm), respectively. A positively charged MTS reagent (MTSET) was used as a positive control.
The MscL protein was modified with the different pH-responsive compounds. The activity of the channel in response to pH was analyzed by the calcein efflux assay. In order to do that, the same buffer at different pHs were prepared and the same sample is analyzed in each buffer.
The MscL protein was modified with a light-sensitive compound. The activity of the channel was analyzed in response to pH. After measuring the initial fluorescence value for samples at each pH, they were exposed to 366 nm light for five to ten minutes. Then, the measurement was continued as before.
The protein from cysteine mutant MscL (cysteine in its 22nd amino acid position) was isolated and modified as explained in Example 2, except that the light-responsive compound E (see FIG. 12c) (P6—C1[X═I]) was dissolved in DM50 and incubated with the protein at a 1:500 molar ratio (protein:compound) for 45 minutes.
(§1) The resulting modified channel was reconstituted in the presence of a fluorescent dye as explained in Example 3 for the calcein efflux experiment. Another sample of the modified channel was prepared for patch clamp experiments as indicated in Example 6.
The protein was isolated and modified as in Example 2 and reconstituted in the presence of calcein as indicated in Example 3.

A short description of data set [2]: Solubility of the product in common solvents. It is filed as physicochemical.
Data set [3] deals with MscL channel protein (cysteine in its 22nd amino acid position) (Escherichia coli, UniProt P0A742, G22C). On the procedure: The activity of the chemically modified MscL is analyzed real time at the single molecule level with patch clamp, a classical electrophysiological technique. This technique allows sealing a patch of membrane, which has embedded channel proteins in it, into the tip of a glass micropipette, and monitoring the ionic current flowing through the open channels in response to different conditions.
As a mechanosensitive channel, unmodified MscL needs a significant amount of tension on the membrane to gate. In patch clamp conditions, it corresponds to the application of negative pressure almost as high as that causing rupturing of the patched membrane.
The channel activity was measured by following its conductance.
The protein from cysteine mutant MscL (cysteine in its 22nd amino acid position) was isolated, modified and reconstituted as explained in Example 2. After reconstitution, giant proteoliposomes were prepared as indicated (A. H. Delcour, B. Martinac, F. R. Blattner, C. Kung, Biophys. J. 1989, 56:631-636). Ten μl rehydrated lipids were placed in 100 μl bath solution and resulting giant liposomes were patched by using glass pipettes with 1 μm tip size. They were made from 100 μl borosilicate capillaries in Sutter 97/IVF micropipette puller. Single channel recordings were performed at +20 mV in symmetrical buffer conditions in 200 mM KCl, 100 mM MgCl2, 5 mM HEPES, pH 6-8. Data were amplified and filtered in Axopatch1D amplifier and sampled in Digidata 1322A digitizer. Recordings were analyzed with pCLAMP8 software.
as §1
Membranes having modified channels were patched at dark or five to ten minutes after illumination with 366 nm light.

Data set [4] concerns the target double cysteine MscL mutant (22nd and 23rd positions) (Escherichia coli, UniProt P0A742, G22C/V23C). The text has this: In order to further improve modulation of the activity of chemically modified MscL, in addition to the amino acid at the 22nd position of the channel, the 23rd position is also replaced with cysteine. This way, if all the subunits are modified, one can introduce two times more charge.
This example compares the single- and double-cysteine mutants for their performance in efflux from proteoliposomes.
The protein from each mutant was obtained and modified with the Compound C (Q1[R1═R2=Me]-L1[n=2]—C3), as explained in Example 2, and the reconstitution for calcein efflux assay was as in Example 3.

Some results are limits rather than exact numbers.

Chain of MscL channel protein (G22C, cysteine at 22nd position) (P0A742 whole entry G22C): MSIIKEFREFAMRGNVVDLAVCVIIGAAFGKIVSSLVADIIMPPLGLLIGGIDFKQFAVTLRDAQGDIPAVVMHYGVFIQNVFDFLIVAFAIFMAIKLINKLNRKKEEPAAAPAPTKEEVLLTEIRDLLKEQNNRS
Chain of MscL channel protein (cysteine in its 22nd amino acid position) (P0A742 whole entry G22C): as above
Chain of double cysteine MscL mutant (22nd and 23rd positions) (P0A742 whole entry G22C/V23C): as the sequence (P0A742 whole entry G22C) above, with V23C counted along it

Regarding `COc1cc(COC(=O)NCCSS(C)(=O)=O)c([N+](=O)[O-])cc1OC` [compound D, methanethiosulfonic acid S-[2-(4,5-dimethoxy-2-nitro-benzyloxycarbonylamino)-ethyl] ester], the “channel activity after cleavage of the light-sensitive part” value in data set [1] (after 366 nm light for five to ten minutes, different pHs) is on record as “pH-dependent activity”. The “channel activity before photolysis” value in data set [1] (no illumination, different pHs) was “stayed inactive until the photolysis occurs”. Further, in data set [2] (DMF, DMSO), the “solubility in DMF and DMSO” value is listed as “soluble”. In addition, the “solubility in dichloromethane and chloroform” value in data set [2] (dichloromethane, chloroform) was “a little soluble”. Moreover, the “solubility in other common solvents” value in data set [2] (other common solvents) is “very badly soluble”.

With `CN(C)CC(=O)OCCSS(C)(=O)=O` [compound C], the “pH at which channel activity starts” value in data set [1] was about 7.03 pH. In addition, the “release of liposomal content at high pH, single mutant” value in data set [1] (high pH) is “did not release the liposomal content”. Also, in data set [1] (pH 7.5), the “channel activity at pH 7.5” value is “no activity”. For the same compound, in data set [3] (different pHs), the “pH dependence of gating in patch clamp” value was “gated only at low pH environment”. Also, in data set [3] (pH 6.3), the “channel gating in patch clamp at pH 6.3” value is recorded as “spontaneous gating”. Also, the “release of liposomal content at high pH, double mutant” value in data set [4] (high pH) is “did not release the liposomal content”. Also, the “release at low pH, double mutant compared with single mutant” value in data set [4] (low pH, two separate experiments) is on record as “better release”.

As to `COc1cc(COC(=O)CI)c([N+](=O)[O-])cc1OC` [compound E, 4.5-dimethoxy-2-nitrobenzyl 2-iodoacetate], in data set [1] (dark, iso-osmotic conditions), the “release of fluorescent dye in the dark” value is given as “did not give any release”. Further, the “release of fluorescent dye after illumination” value in data set [1] (exposed to ultraviolet light, iso-osmotic conditions) is “released the fluorescent dye as soon as proteoliposomes were exposed to ultraviolet light”. In addition, the “channel gating in patch clamp at dark” value in data set [3] (dark, negative pressure up to membrane rupture) is reported as “no channel gating”. Moreover, the “channel gating in patch clamp after illumination” value in data set [3] (five to ten minutes after illumination with 366 nm light, no tension) is recorded as “gated simultaneously with no tension”.

In the case of `CNCC(=O)OCCSS(C)(=O)=O` [compound B], in data set [1], the “pH at which channel activity starts” value is on record as under 8 pH and the “channel activity of modified protein in response to pH” value was “pH-dependent activation”. Also, the pKa result in data set [1] (compound attached to MscL) is given as “approximately 8”. Also, the “channel gating in patch clamp at pH 6.2” value in data set [3] (pH 6.2, n=4) is listed as “gated even without any applied negative pressure”. In data set [3] (pH 7.2, n=10), the “mean negative pressure applied (until membrane rupture, no gating)” value was 79 mmHg. In data set [3] (pH 7.2, n=10, negative pressure applied until the patched membrane ruptured), the “channel activity in patch clamp at pH 7.2” value was “did not give any activity”.

`CS(=O)(=O)SCCOC(=O)CN` [compound A]: in data set [1] (physiological pH), the “channel activity at physiological pH” value is on record as “some activity”. In data set [1], the “channel activity of modified protein in response to pH” value is “pH-dependent activation, especially at lower pHs”.

Regarding `C[N+](C)(C)CCSS(C)(=O)=O.[Br-]` [MTSET, [2-(Trimethylammonium)-ethyl]-methanethiosulfonate bromide, reference compound], the “channel opening after reaction with free sulfhydryl at 22nd position (positive control)” value in data set [1] (MTSET 0.8 mM final concentration as trigger) is reported as “always opens the channel”.

The values are drawn from patent US7393828B2, “Modified MscL protein channel” (Applied NanoSystems B.V., priority 2003, dated 2008).
